Legend:
citrate synthetase = biological target: T1, citrate synthetase (Homo sapiens, UniProt O75390); assay: Citrate synthetase complex reaction under gas; assay type: biochemical; settings: for effect on citrate synthase: FIG. 33
T1 sequence (O75390 28-466): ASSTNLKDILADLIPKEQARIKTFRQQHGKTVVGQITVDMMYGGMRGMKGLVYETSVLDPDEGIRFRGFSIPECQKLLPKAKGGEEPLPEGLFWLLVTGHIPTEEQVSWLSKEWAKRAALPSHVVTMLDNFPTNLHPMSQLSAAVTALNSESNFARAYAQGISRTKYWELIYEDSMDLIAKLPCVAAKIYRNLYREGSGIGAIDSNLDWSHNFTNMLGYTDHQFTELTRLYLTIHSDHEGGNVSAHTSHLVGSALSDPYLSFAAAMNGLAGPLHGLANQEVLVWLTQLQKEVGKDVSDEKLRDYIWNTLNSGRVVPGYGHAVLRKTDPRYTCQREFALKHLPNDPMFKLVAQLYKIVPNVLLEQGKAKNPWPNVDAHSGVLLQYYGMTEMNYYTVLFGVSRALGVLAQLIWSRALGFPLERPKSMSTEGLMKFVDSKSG
Description: (§1) Solution preparation: Optimized w/v solutions are prepared by diluting the enzyme (units/ml) and the substrate (μg/ml) in appropriate buffer (optimized pH and molarity for enzymes). The solutions are used for gas experiments at once to avoid loss of activity. Various enzyme and substrate concentrations and inhibitors may be employed. Physical parameters are varied as required.
(§2) Preparation of samples: Cuvets are filled with 2 ml of substrate solution by means of a gas-tight syringe. Gas-tight serum vials are filled with enzyme and solvent. Sufficient gas is consecutively bubbled in the cuvets and serum vials, with a 1-hr wait between injections to maximize equilibration of gas. All syringes and dead spaces are purged before filling with the appropriate gas. The amount of gas used has been measured sufficient to saturate the solution required.
(§3) Spectrophotometric time-drive, reaction rate, and kinetic analyses: cuvets and serum vials are saturated with gas 40 minutes before the run. A gas-filled syringe is used to retrieve 0.5 ml of enzyme solution to avoid air contact. The 0.5 ml syringe injections of enzyme are made simultaneously to effect a common starting time to for the samples. 7 gases (air, O2, N2, Ne, Ar, Kr, Xe) are run at various temperatures each (from 0° to 60° ). Changes in the rate or final equilibrium of the reaction versus ambient air are recorded. Comparison is also made with added oxygen, and with deoxygenation. Some samples are also prepared under pressure.
(§4) In a complete experiment, an enzyme at optimal pH and buffering salt concentration is reacted with 5 substrate concentrations in solution with noble gas at 1 atm. […] Controls are also run after evacuation of solution by vacuum. The reaction is monitored colorimetrically in a scanning spectrophotometer in real time, and the signals are treated mathematically to obtain rate and yield differences. Sample numbers are constant and sufficient to ensure significance of results. All parameters are independently controlled and measured, and more complex experiments are occasionally carried out.

Phosphoglucose isomerase = Phosphoglucose isomerase (Homo sapiens, UniProt P06744); assay: Phosphoglucose isomerase activity under gas; assay type: biochemical; settings: for effect: phosphoglucose isomerase; for effect, stressed: stressed = nonoptimal substrate concentration or temperature
Description: as §1, §2, §3, §4

Acetyl S-CoA synthetase = Acetyl S-CoA synthetase activity under gas (coupled sequence or isolated reaction); assay type: biochemical; settings: for Maximum observed enhancement / maximum observed inhibition: depending upon temperature
Description: as §1, §2, §3
Maximum observed enhancement vs maximum observed inhibition (depending upon temperature):
In a coupled complex reaction sequence including hydrolytic enzymes: […]

β-D-Glucosidase = assay: High pressure experiments, β-D-glucosidase; assay type: biochemical, Almonds
Description: Experiments were conducted in pressure cells pressurized with additional test gas after solution was already saturated, at 2 atmospheres or at 3 atmospheres in real-time, or after pressurizing in a 1-liter cylinder for 1 hour or ~24 hours at 30.6 atmospheres and at 100 atmospheres.
Rinse the cylinders with copious quantities of D.I. H2 O. Then rinse the cylinders with the second enzyme solution (glucosidase). Place a 25 ml aliquot of enzyme solution into each of 2 disposable gas cylinders. Shake the enzyme in each cylinder for several minutes and then remove a 5 ml sample for Control B and Control C.
Remove cylinders to the dock, gassing with the appropriate gas; bring pressure slowly up to 30.6 atm. Let sit at the required pressure for 60 minutes. Slowly depressurize to 2 psi before bringing into the lab.
Bring the cylinders back to the dock and repressurize to 100 atm with the appropriate gas. Let sit at the required pressure for 60 minutes. Slowly depressurize to 2 psi before bringing into the lab.
Cuvettes were filled for the 2 atm experiments for both enzymes. Each cuvette was gassed 10×10 cc with the appropriate gas and refrigerated for 15 minutes prior to running. Serum vials were filled with 5 cc of the corresponding enzyme and gassed with 10×10 cc of the appropriate gas prior to running. The spectrophotometers were set up such that a continuous flow of each gas could be delivered to each spectro at all times. A 100 psimax gauge was installed to read the cuvette pressure and 2 on/off valves were installed so that the reference cell could be pressurized during the second replicate. A ball valve was installed between the cylinder/house line and the gauge so that gas flow could be controlled directly at the spectrophotometers. A check valve was placed in each line to ensure that a back pressure would not cause contamination of the house lines or the gas cylinders. The cuvettes retained the 2 needles during the entire run. One of the needles was attached to the gas line while the second was used for enzyme introduction and then plugged. Due to the bulky nature of the assembly it was impossible to use the installed doors of the spectrophotometers therefore they were removed. A 4-layer thick black felt cover was prepared for each spectro to minimize the amount of light entering the system.
While the cuvette was equilibrating to temperature in the spectrophotometer both needles remained in the cuvette with 10 cc syringes still attached. Prior to enzyme introduction one of the syringes was removed while the gas line was attached to the needle. A small flow of gas run through the line while this was done to ensure that there was no oxygen contamination. The needles remained above the liquid level. The second syringe was removed to allow constant flow through the cuvette. The enzyme was injected through the second needle using a 1 cc syringe. The needle was then plugged, the cuvette pressurized and the run begun.
A nonpressurized gas run using all four gases was done for each enzyme. Each cuvette was gassed with 10×10 cc of the corresponding gas and refrigerated for 15 minutes. The 2 needles used for gassing the cuvettes were removed when the cuvettes were placed into the spectrophotometer. Enzyme was introduced into the cuvettes using a 1 cc syringe with a 20G11/2 needle attached. The needle was placed into the cuvette through the silicone plug but not immersed into the liquid. This was to ensure that enzyme introduction into the cuvette was the same as for the pressurized gas run.
The same method as used in Trial 2 on Apr. 30, 1991 was used for this trial.
At 3 atmospheres pressure, the degree of enhancement observed was changed as follows: […]

tyrosinase = assay: Oxygen addition experiment, tyrosinase; assay type: biochemical
Description: as §4

[1] = coupled complex reaction sequence including hydrolytic enzymes
[2] = at 3 atmospheres pressure (value after the > sign), minus = inhibition
[3] = before pressurization (value before the > sign)
[4] = after addition of oxygen up to a saturating amount to the gas-saturated solution
[5] = gas-saturated solution before addition of oxygen

SMILES	effect on citrate synthetase complex reaction (citrate synthetase; 10° C.)	effect on citrate synthetase complex reaction (citrate synthetase; 25° C.)	effect on citrate synthetase complex reaction (citrate synthetase; 35° C.)	effect on citrate synthase (citrate synthetase)	effect on phosphoglucose isomerase (Phosphoglucose isomerase; 10° C., FIG. 34)	effect (Phosphoglucose isomerase)	Maximum observed enhancement (Acetyl S-CoA synthetase; [1])	maximum observed inhibition (Acetyl S-CoA synthetase; [1])	Maximum observed enhancement (Acetyl S-CoA synthetase; isolated reaction)	maximum observed inhibition (Acetyl S-CoA synthetase; isolated reaction)	degree of enhancement observed (β-D-Glucosidase; [2])	degree of enhancement observed (β-D-Glucosidase; [3])	inhibition (tyrosinase; [4])	inhibition (tyrosinase; [5])	effect on S-acetyl CoA synthetase (Acetyl S-CoA synthetase; 25° C., FIG. 36)	effect on phosphoglucose isomerase (Phosphoglucose isomerase; 25° C., FIG. 35)	effect on acetyl S-CoA synthetase compared with noble gases (Acetyl S-CoA synthetase)	effect on β-glucosidase (β-D-Glucosidase; 30 atm. pressure, FIG. 38)	effect on β-glucosidase (β-D-Glucosidase; 100 atm. pressure, 25° C., FIG. 37)	effect, stressed (Phosphoglucose isomerase)
[Ar] [Ar, argon]	+25	-10	-15	inhibition	enhancement	+232.5%	+67.7%	+34.6%	+75.4%	-27.6%	-13.2	+1.0	12%	82%	–	–	–	–	–	–
[Kr] [Kr, krypton]	+37	+6	+32	enhancement	enhancement	+206.4%	+16.1%	-34.6%	+5.0%	-52.6%	-6.2	+2.0	–	–	enhancement	–	–	–	–	–
N#N [N2, nitrogen, reference compound]	-6	-25	-17	–	–	–	+31.2%	-39.5%	+35.7%	-118.7%	-5.0	0	zero inhibition	84%	–	enhancement	much lesser effect than noble gases except at superoptimal temperatures	inhibitory effect	inhibitory effect	–
[Ne] [Ne, neon]	+11	+9	-14	–	–	+107%	+2.3%	-21.9%	–	–	-12.5	+1.0	–	–	–	enhancement	–	–	–	-45%
[Xe] [Xe, xenon]	+18	0	+32	enhancement	enhancement	+186%	+18.3%	-25.0%	+15.4%	-39.5%	-15.7	+3.1	50%	85%	–	–	–	–	–	-61%
